Legend:
[1] = biological target: GDP-bound NRAS wild-type protein (Homo sapiens, UniProt P01111); test: Binding to NRAS by surface plasmon resonance (SPR), Single Cycle Kinetics; conditions: for NRAS/KRAS (ratio of KD value with respect to NRAS to KD value with respect to KRAS) / NRAS/KRAS (ratio of KD value for NRAS to KD value for KRAS): SPR, GDP-bound NRAS wild-type protein vs GDP-bound KRAS wild-type protein
[2] = biological target: GDP-bound HRAS wild-type protein (Homo sapiens, UniProt P01112); test: Binding to HRAS by surface plasmon resonance (SPR), Single Cycle Kinetics; conditions: for HRAS/KRAS (ratio of KD value with respect to HRAS to KD value with respect to KRAS) / HRAS/KRAS (ratio of KD value for HRAS to KD value for KRAS): SPR, GDP-bound HRAS wild-type protein vs GDP-bound KRAS wild-type protein
Sequence of GDP-bound HRAS wild-type protein (P01112 whole entry): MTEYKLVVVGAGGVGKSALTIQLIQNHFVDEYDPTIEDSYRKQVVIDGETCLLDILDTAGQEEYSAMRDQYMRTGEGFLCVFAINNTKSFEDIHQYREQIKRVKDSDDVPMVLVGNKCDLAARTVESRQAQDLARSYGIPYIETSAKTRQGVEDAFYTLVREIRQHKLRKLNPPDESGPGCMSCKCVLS

Sequence of GDP-bound NRAS wild-type protein (P01111 whole entry): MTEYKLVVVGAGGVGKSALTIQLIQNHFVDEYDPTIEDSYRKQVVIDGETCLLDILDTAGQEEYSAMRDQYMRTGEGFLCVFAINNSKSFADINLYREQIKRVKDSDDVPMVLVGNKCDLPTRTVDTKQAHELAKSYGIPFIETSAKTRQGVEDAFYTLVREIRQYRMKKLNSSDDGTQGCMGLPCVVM

| Structure (SMILES) | NRAS/KRAS (ratio of KD value with respect to NRAS to KD value with respect to KRAS) [1] | HRAS/KRAS (ratio of KD value with respect to HRAS to KD value with respect to KRAS) [2] | NRAS/KRAS (ratio of KD value for NRAS to KD value for KRAS) [1] | HRAS/KRAS (ratio of KD value for HRAS to KD value for KRAS) [2] | further results |
| --- | --- | --- | --- | --- | --- |
| CCO[C@@H]1C[C@H]2C(=O)NC3(CCC3)C(=O)N(C)[C@@H](C3CCCC3)C(=O)N(C)[C@H](C(=O)N(C)C)CC(=O)N(C)[C@@H](CC3CCCCC3)C(=O)N[C@@H]([C@@H](C)CC)C(=O)N(C)CC(=O)N(C)[C@H]3CCCCCN(C3=O)[C@@H](Cc3ccc(C(F)(F)F)cc3)C(=O)N(C)CC(=O)N[C@@H](CCc3cc(F)c(C(F)(F)F)c(F)c3)C(=O)N2C1 [PP0671] | B (a compound having 3 or more and less than 10 is denoted as B) | B (a compound having 3 or more and less than 10 is denoted as B) | – | – | – |
| CCO[C@@H]1C[C@H]2C(=O)NC3(CCC3)C(=O)N(C)[C@@H](C(CC)CC)C(=O)N(C)[C@H](C)CC(=O)N(C)[C@@H](CC3CC3)C(=O)N[C@@H]([C@@H](C)CC)C(=O)N(C)CC(=O)N(C)[C@H]3C/C=C\CCN(C3=O)[C@@H](Cc3ccc(F)cc3C)C(=O)N(C)CC(=O)N[C@@H](CCc3cc(F)c(C(F)(F)F)c(F)c3)C(=O)N2C1 [PP1520] | – | – | – | – | NRAS/KRAS (ratio of KD value for NRAS to KD value for KRAS) ([1]; KD ratio class): A (a compound having 10 or more and less than 20 is denoted as A); HRAS/KRAS (ratio of KD value for HRAS to KD value for KRAS) ([2]; KD ratio class): A (a compound having 10 or more and less than 20 is denoted as A) |
| CC[C@H](C)[C@@H]1NC(=O)[C@H](CC(C)C)N(C)C(=O)C[C@@H](C(=O)N2CCOCC2)N(C)C(=O)[C@H](C2CCCC2)N(C)C(=O)C2(CCC2)NC(=O)[C@@H]2C[C@@H](OCC3CC3)CN2C(=O)[C@H](CCc2cc(F)c(C(F)(F)F)c(F)c2)NC(=O)CN(C)C(=O)[C@H](Cc2ccc(C(F)(F)F)cc2)N2CCCC[C@@H](C2=O)N(C)C(=O)CN(C)C1=O [PP1000] | – | – | B (a compound having 3 or more and less than 10 is denoted as B) | B (a compound having 3 or more and less than 10 is denoted as B) | – |
| CCOC[C@H]1C(=O)N[C@@H]([C@@H](C)CC)C(=O)N(C2CC2)CC(=O)N(C)[C@H]2C/C=C\CCN(C2=O)[C@@H](CC2CCCCC2)C(=O)N(C)CC(=O)N[C@@H](CCc2ccc(C(F)(F)F)c(OC)c2)C(=O)N2C[C@H](OCC)C[C@H]2C(=O)N(C)C2(CCC2)C(=O)N(C)[C@@H](C2CCCC2)C(=O)N(C)[C@H](C(=O)N(C)C)CC(=O)N1C [PP2342] | – | – | A (a compound having 10 or more and less than 20 is denoted as A) | A (a compound having 10 or more and less than 20 is denoted as A) | – |
| CCO[C@@H]1CCN2C(=O)[C@H](CCc3cc(F)c(C(F)(F)F)c(F)c3)NC(=O)CN(C)C(=O)[C@H](Cc3ccc(C(F)(F)F)cc3)N3CCCCC[C@@H](C3=O)N(C)C(=O)CN(C)C(=O)[C@H]([C@@H](C)CC)NC(=O)[C@H](CC(C)C)N(C)C(=O)C[C@@H](C(=O)N3CCOCC3)N(C)C(=O)[C@H](C3CCCC3)N(C)C(=O)C3(CCC3)NC(=O)[C@H]12 [PP1082] | – | – | A (a compound having 10 or more and less than 20 is denoted as A) | B (a compound having 3 or more and less than 10 is denoted as B) | – |
| CCC[C@H]1C(=O)N[C@@H]([C@@H](C)CC)C(=O)N(C)CC(=O)N(C)[C@H]2C/C=C\CCN(C2=O)[C@@H](Cc2ccc(C(F)(F)F)cc2)C(=O)N(C)CC(=O)N[C@@H](CCc2cc(C)c(C(F)F)c(Cl)c2)C(=O)N2C[C@H](OCC)C[C@H]2C(=O)NC2(CC(C)(C)C2)C(=O)N(C)[C@@H](C2CCCC2)C(=O)N(C)[C@H](C(=O)N(C)C)CC(=O)N1C [PP2866] | – | – | – | – | NRAS/KRAS (ratio of KD value with respect to GDP-bound NRAS wild-type protein to KD value with respect to KRAS) ([1]; SPR KD ratio NRAS/KRAS, class symbols): A (a compound having 10 or more and less than 20 is denoted as A); HRAS/KRAS (ratio of KD value with respect to GDP-bound HRAS wild-type protein to KD value with respect to KRAS) ([2]; SPR KD ratio HRAS/KRAS, class symbols): A (a compound having 10 or more and less than 20 is denoted as A) |
| CC[C@H](C)[C@@H]1NC(=O)[C@H](CC(C)C)N(C)C(=O)C[C@@H](C(=O)N2CCOCC2)N(C)C(=O)[C@H](C2CCCC2)N(C)C(=O)C2(CCCC2)NC(=O)[C@@H]2CCCN2C(=O)[C@H](CCc2cc(F)c(C(F)(F)F)c(F)c2)NC(=O)CN(C)C(=O)[C@H](Cc2ccc(C(F)(F)F)cc2)N2CCCC[C@@H](C2=O)N(C)C(=O)[C@H](CC)N(C)C1=O [PP0551] | C (A compound having a KD ratio of 0.1 or more and less than 3 is denoted as C) | B (a compound having 3 or more and less than 10 is denoted as B) | – | – | – |
| CC[C@H](C)[C@@H]1NC(=O)[C@@H](CC(C)C)N(C)C(=O)C[C@@H](C(=O)N2CCOCC2)N(C)C(=O)[C@H](C2CCCC2)N(C)C(=O)C2(CCCC2)NC(=O)[C@@H]2CCCN2C(=O)[C@H](CCc2cc(F)c(C(F)(F)F)c(F)c2)NC(=O)CN(C)C(=O)[C@H](Cc2ccc(C(F)(F)F)cc2)N2CCCC[C@@H](C2=O)N(C)C(=O)CN(C)C1=O [PP0591] | B (a compound having 3 or more and less than 10 is denoted as B) | B (a compound having 3 or more and less than 10 is denoted as B) | – | – | – |

Reference: patent US20240158446A1, “CYCLIC COMPOUND HAVING SELECTIVE INHIBITORY ACTION ON KRAS OVER HRAS AND NRAS” (CHUGAI SEIYAKU KABUSHIKI KAISHA, priority 2021, published 2024)
